Measured values published in patent US5185338A, “Medicament for treating cerebral insufficiency diseases, novel 2-(1-piperazinyl)-4-phenylcycloalkanopyrimidine derivatives, and process for the production thereof” (Dainippon Pharmaceutical Co., Ltd., priority 1989, dated 1993).
Like-named read-outs stand apart in the source and are kept apart here.

Assays:
[1] = Chem. Pharm. Bull., 31, 2254-2261 (1983); cited from earlier work
[2] = U.S. Pat. No. 3,915,976; U.S. Pat. No. 3,305,553; cited from earlier work
[3] = test system: scopolamine-induced hypermotility; experiment: Antagonistic effect on scopolamine-induced hypermotility; type: in vivo, mice (Std-ddY strain); details: Mus musculus, po, read-out: Inhibitory ratio (% antagonism of scopolamine-induced hypermotility)
Protocol: Antagonistic effect on scopolamine-induced hypermotility:
A test compound was orally administered to each mouse, and 90 minutes after the administration, each one test animal was placed within a test cage (25×35×30 cm). After 30 minutes, scopolamine hydrobromide (1 mg/kg) was intraperitoneally administered to the mice and then the motility was measured with Animex activity meter for 30 minutes. The effect of test compounds was expressed as % antagonism (complete antagonism to the motility level of non-dosed animals=100%).

mice = experiment: Acute toxicity; type: in vivo, mice (Std-ddY strain); details: 200 mg/kg orally; 7 days observation; 5 male mice
Protocol: Experiment 8 Acute toxicity
A group of 5 male mice (Std-ddY strain, 25-30 g) was used. The test compound (200 mg/kg) was orally administered to the test animal in the form of a 0.5% tragacanth solution or suspension, and for 7 days after the administration of the test compound, the lethality of animals was observed.

dopamine (D2) receptor = target: T1, dopamine (D2) receptor (Rattus norvegicus, UniProt P61169); experiment: Dopamine (D2) receptor binding assay, [3H] spiperone; design: species or system rats; details: rat brain crude synaptosome fractions
T1 construct: Crude synaptosome fractions prepared from some brain regions in rats were used as the receptor sources; from tissue
T1 sequence (P61169 whole entry): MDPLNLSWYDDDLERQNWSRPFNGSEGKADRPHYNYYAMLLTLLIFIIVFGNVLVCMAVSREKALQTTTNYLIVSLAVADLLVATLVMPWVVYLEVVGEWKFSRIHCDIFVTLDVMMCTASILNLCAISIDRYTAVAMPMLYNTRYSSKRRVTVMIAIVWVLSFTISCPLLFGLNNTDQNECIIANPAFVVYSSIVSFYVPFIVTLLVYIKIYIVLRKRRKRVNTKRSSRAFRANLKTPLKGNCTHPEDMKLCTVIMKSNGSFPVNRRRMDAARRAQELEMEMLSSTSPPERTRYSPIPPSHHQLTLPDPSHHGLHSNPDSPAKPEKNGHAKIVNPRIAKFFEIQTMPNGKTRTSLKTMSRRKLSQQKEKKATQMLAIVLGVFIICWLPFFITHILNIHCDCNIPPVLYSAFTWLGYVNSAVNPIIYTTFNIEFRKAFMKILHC
Protocol: (§1) Effect of binding to dopamine (D2), serotonin (S1, S2) and adrenaline (α1) receptor (in vitro receptor binding assay):
(§2) Dopamine (D2), serotonin (S1, S2) and adrenaline (α1) receptor binding assays were carried out according to the methods of I. Creese et al. [Eur. J. Pharmacol., 46, 377 (1977)], S. J. Peroutka et al. [Mol. Pharmacol., 16, 687 (1979)], J. E. Leysen et al. [Mol. Pharmacol., 21, 301 (1982)], and D. C. U'Prichard et al. [Mol. Pharmacol., 13, 454 (1977)], respectively.
(§3) Crude synaptosome fractions prepared from some brain regions in rats were used as the receptor sources, and [^3 H] spiperone (D2), [^3 H] serotonin (S1), [^3 H] ketanserin (S2) and [^3 H] WB-4101 (α1) were used as the labelled ligands. The binding assay was performed by incubating aliquots of synaptosome fraction in buffer solution (final volume 1 ml) containing the receptor source and the labelled ligand in the presence of a test compound having various concentration thereof for a fixed time. The assay was terminated by rapid filtration through Whatman GF/B glass fiber filters attached to a cell-harvester (Brandel) and radioactivity on the filters was counted with a scintillation counter. Specific binding was calculated as a difference between the amount of radioactivity in the assay group and that in the control group which was separately measured likewise in the presence of an excess amount of an unlabelled ligand [spiperone (D2), serotonin (S1), methysergide (S2) and prazosin (α1)] instead of […]. The IC50 value of the test compounds (i.e. the concentration causing 50% inhibition of the labelled ligand specific binding) was determined by probit analysis.

adrenaline (α1) receptor = experiment: Adrenaline (α1) receptor binding assay, [3H] WB-4101; design: species or system rats; details: rat brain crude synaptosome fractions
Protocol: as §1, §2, §3

serotonin (S1) receptor = experiment: Serotonin (S1) receptor binding assay, [3H] serotonin; design: species or system rats; details: rat brain crude synaptosome fractions
Protocol: as §1, §2, §3

[4] = test system: cycloheximide-induced amnesia of passive avoidance response; experiment: Improving effect on cycloheximide-induced amnesia of passive avoidance response; type: in vivo, mice (Std-ddY strain); details: cycloheximide 60 mg/kg s.c., retention trial at 24 hours, non-dosed animals=100%
Text: Improving effect on cycloheximide-induced amnesia of passive avoidance response:
Anti-amnesic effect of the test compounds was examined using mice given cycloheximide which is a known amnesia-inducing agent.
A group of 15-20 male mice (Std-ddY strain, 27-33 g) was subjected to training and retention trials for a passive avoidance task in a step-down apparatus (30×30×50 cm) with a grid floor and a wooden platform (4×4×4 cm) in a center of the floor. In the training trial, each mouse was first placed on the platform, and when the mouse stepped down on the grid floor, an electric shock (1 Hz, 0.5 sec, 60 VDC) was delivered to the feet for 15 seconds. Immediately after the training trial, cycloheximide (60 mg/kg, s.c.) and a test compound (i.p.) were administered. The retention trial was carried out 24 hours thereafter, and the time from placing again each mouse on the platform until stepping down on the grid floor (step-down latency) was measured. The step-down latency in the retention trial was markedly shortened by treatment of cycloheximide (amnesia). The effect of test compounds was assessed by % improvement (complete improvement to the latency level of non-dosed animals=100%).

[5] = test system: scopolamine-induced deficit of spontaneous alternation behavior; experiment: Improving effect on scopolamine-induced deficit of spontaneous alternation behavior (T-maze); type: in vivo, mice (Std-ddY strain); details: scopolamine hydrobromide 1 mg/kg, non-dosed mice=100%
Text: Improving effect on scopolamine-induced deficit of spontaneous alternation behavior:
A group of 15-25 male mice (Std-ddY strain, 22-28 g) was used for evaluating effect of the test compounds on scopolamine-induced deficit of spontaneous alternation in a T-maze, which is a known animal model of memory impairment due to hypofunction of the cholinergic nervous system. The T-maze used consists of a stem and two arms which are 25 cm long, 5 cm wide and 10 cm high. The first 10 cm of the stem and last 10 cm of each arm are divided by sliding doors into start and goal boxes.
A test compound and scopolamine hydrobromide (1 mg/kg) were intraperitoneally administered to each mouse, and after 30 minutes a test of spontaneous alternation task in the T-maze was continuously repeated for 8 trials. Commonly, naive mice alternate each (right and left) goal box in turn, but scopolamine-treated animals tend to enter the same goal box repeatedly. The effect of the test compounds was expressed as % improvement (complete improvement to the alternation level of non-dosed mice=100%).

[6] = test system: brain serotonin metabolite, 5-hydroxyindole-3-acetic acid (5-HIAA); experiment: Increasing effect on concentration of brain serotonin metabolite (5-HIAA); type: in vivo, mice (Std-ddY strain); details: Mus musculus, 2 h, two hours after treatment, 5-HIAA level of non-dosed animals=100%
Text: Increasing effect on concentration of brain serotonin metabolite:
A group of 5 male mice (Std-ddY strain, 25-30 g) was used for examining effect of the test compounds on concentration of a brain serotonin metabolite, 5-hydroxyindole-3-acetic acid (5-HIAA).
Mice were killed by decapitation two hours after the treatment with the test compounds. Brains were quickly taken out, homogenized in 1N formic acid-acetone solution, and centrifuged in a refrigerated ultracentrifuge. The supernatant was evaporated by blowing with N2 gas, and then, the residue was again dissolved in 0.01N acetic acid, and served for determining 5-HIAA concentration by high performance liquid chromatography with electrochemical detection. The effect of the test compounds on 5-HIAA concentration was shown as % of control (5-HIAA level of non-dosed animals=100%).

serotonin (S2) receptor = target: T2, serotonin (S2) receptor (Rattus norvegicus, UniProt P14842); experiment: Serotonin (S2) receptor binding assay, [3H] ketanserin; design: species or system rats; details: rat brain crude synaptosome fractions
T2 construct: Crude synaptosome fractions prepared from some brain regions in rats were used as the receptor sources; from tissue
T2 sequence (P14842 whole entry): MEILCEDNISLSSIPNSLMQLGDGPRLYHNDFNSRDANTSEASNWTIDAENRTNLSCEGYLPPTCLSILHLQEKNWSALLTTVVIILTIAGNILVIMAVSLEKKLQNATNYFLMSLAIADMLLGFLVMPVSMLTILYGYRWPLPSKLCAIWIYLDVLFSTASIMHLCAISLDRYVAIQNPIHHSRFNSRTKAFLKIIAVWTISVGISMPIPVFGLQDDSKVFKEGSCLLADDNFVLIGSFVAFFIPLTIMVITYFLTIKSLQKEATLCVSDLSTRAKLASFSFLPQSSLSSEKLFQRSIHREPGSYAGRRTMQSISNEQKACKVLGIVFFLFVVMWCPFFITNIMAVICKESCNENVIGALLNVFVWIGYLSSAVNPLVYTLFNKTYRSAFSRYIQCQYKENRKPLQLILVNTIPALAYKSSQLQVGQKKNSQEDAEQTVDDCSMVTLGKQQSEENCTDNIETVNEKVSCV
Protocol: as §1, §2, §3

[7] = test system: reserpine-induced hypothermia; experiment: Anti-reserpine effect (reserpine-induced hypothermia); type: in vivo, mice (Std-ddY strain); details: 100 mg/kg orally; reserpine 5 mg/kg s.c.; rectal temperature at 4 hours; complete inhibition=100%
Protocol: A group of 5 male mice (Std-ddY strain, 22-25 g) was used for examining the antagonistic effect of the test compounds on reserpine-induced hypothermia, which is known as a screening method for the antidepressant drug.
Reserpine (5 mg/kg) was subcutaneously administered to the mice and further a test compound was orally administered thereto. Four hours after the administration, rectal temperature of the mice was measured. The effect of the test compounds was estimated by % inhibition (complete inhibition to the hypothermia by reserpine in non-dosed animals=100%).

[8] = 3 mg/kg, orally, scopolamine hydrobromide 1 mg/kg i.p., complete antagonism to motility level of non-dosed animals=100%
[9] = 30 mg/kg, orally, scopolamine hydrobromide 1 mg/kg i.p., complete antagonism to motility level of non-dosed animals=100%
[10] = orally, scopolamine hydrobromide 1 mg/kg i.p., complete antagonism to motility level of non-dosed animals=100%

In the case of `c1ccc(-c2nc(N3CCNCC3)nc3c2CCCC3)cc1` [4-phenyl-2-(1-piperazinyl)-5,6,7,8-tetrahydroquinazoline], the Hypoglycemic activity [1] is given as “weak hypoglycemic activity”.

For `CN1CCN(c2nc3c(c(-c4ccccc4)n2)CCCCC3)CC1` [6,7,8,9-tetrahydro-2-(4-methyl-1-piperazinyl)-4-phenyl-5H-cyclohepta[d]pyrimidine], the Anti-inflammatory activity [2] is given as “have anti-inflammatory activity”.

For `CN1CCN(c2nc3c(c(-c4ccccc4)n2)CCC3)CC1` [6,7-dihydro-2-(4-methyl-1-piperazinyl)-4-phenyl-5H-cyclopenta[d]pyrimidine], the Anti-inflammatory activity [2] is listed as “have anti-inflammatory activity”.

In the case of `Fc1ccc(-c2nc(N3CCNCC3)nc3c2CCCCC3)cc1` [Ex. 2, 2-(1-piperazinyl)-4-(4-fluorophenyl)-6,7,8,9-tetrahydro-5H-cycloheptapyrimidine], the inhibition in vivo at 30 mg/kg [3] is reported as 69.2%, the Lethality of animals (mice) is reported as “no animal was died” and the IC50 (dopamine (D2) receptor) is reported as 750 nM. The IC50 (adrenaline (α1) receptor) was 3400 nM, the IC50 (serotonin (S1) receptor) was 3000 nM and the “Improvement of cycloheximide-induced amnesia (step-down latency)” value (“Improvement … (step-down latency)” for short) ([4]; 0.5 mg/kg i.p.) was 93.7%. The “Improvement … (step-down latency)” value ([4]; 2.0 mg/kg i.p.) was 72.8%, the “Improvement of scopolamine-induced deficit of spontaneous alternation” value (“Improvement … of spontaneous alternation” below) ([5]; 2.0 mg/kg i.p.) was 39.1% and the response vs control in vivo at 100 mg/kg [6] was 135%. The IC50 (serotonin (S2) receptor) was 9.6 nM.

In the case of `c1ccc(-c2nc(N3CCNCC3)nc3c2CCC3)cc1` [Ex. 3, 2-(1-Piperazinyl)-4-phenyl-6,7-dihydro-5H-cyclopentapyrimidine], the inhibition in vivo at 3 mg/kg [3, 8] is reported as 68%, the “Improvement … (step-down latency)” value ([4]; 0.5 mg/kg i.p.) is reported as 34.4% and the “Improvement … (step-down latency)” value ([4]; 10.0 mg/kg i.p.) is reported as 52.1%. The “Improvement … of spontaneous alternation” value ([5]; 2.0 mg/kg i.p.) was 45.8%.

With `c1ccc(-c2nc(N3CCNCC3)nc3c2CCCCC3)cc1` [Ex. 7, 2-(1-Piperazinyl)-4-phenyl-6,7,8,9-tetrahydro-5H-cycloheptapyrimidine] the inhibition in vivo at 30 mg/kg [3, 9] was 78.2%, the IC50 (dopamine (D2) receptor) was 2000 nM and the “Improvement … (step-down latency)” value ([4]; 0.5 mg/kg i.p.) was 70.4%. For the same compound, the “Improvement … of spontaneous alternation” value ([5]; 10.0 mg/kg i.p.) was 44.0% and the IC50 (serotonin (S2) receptor) was 38 nM.

In the case of `c1ccc(-c2nc(N3CCNCC3)nc3c2CCCCCC3)cc1` [Ex. 9, 2-(1-Piperazinyl)-4-phenyl-5,6,7,8,9,10-hexahydrocyclooctapyrimidine], the inhibition in vivo at 10 mg/kg [3, 10] is reported as 60.4%, the Lethality of animals (mice) is reported as “no animal was died” and the “Improvement … (step-down latency)” value ([4]; 0.5 mg/kg i.p.) is reported as 85.8%. For the same compound, the “Improvement … of spontaneous alternation” value ([5]; 2.0 mg/kg i.p.) was 36.7%.

`Fc1ccc(-c2nc(N3CCNCC3)nc3c2CCCCCC3)cc1` [Ex. 10, 2-(1-Piperazinyl)-4-(4-fluorophenyl)-5,6,7,8,9,10-hexahydrocyclooctapyrimidine] showed an inhibition in vivo at 3 mg/kg [3] of 50.6%, an IC50 (dopamine (D2) receptor) of 130 nM and an IC50 (adrenaline (α1) receptor) of 1200 nM. For the same compound, the IC50 (serotonin (S1) receptor) was 1300 nM, the “Improvement … (step-down latency)” value ([4]; 0.5 mg/kg i.p.) was 67.1% and the “Improvement … of spontaneous alternation” value ([5]; 2.0 mg/kg i.p.) was 63.0%. The IC50 (serotonin (S2) receptor) was 19 nM.

With `Fc1ccc(-c2nc(N3CCNCC3)nc3c2CCCC3)cc1` [Ex. 14, 2-(1-piperazinyl)-4-(4-fluoro-phenyl)-5,6,7,8-tetrahydroquinazoline] the inhibition in vivo at 3 mg/kg [3, 8] was 55.2%, the “Inhibitory ratio (% inhibition of reserpine-induced hypothermia)” value [7] was 100% and the “Improvement … (step-down latency)” value ([4]; 2.0 mg/kg i.p.) was 52.5%. The “Improvement … of spontaneous alternation” value ([5]; 1.0 mg/kg i.p.) was 40.7% and the response vs control in vivo at 100 mg/kg [6] was 154%.

With `CN1CCN(c2nc3c(c(-c4ccccc4)n2)CCCC3)CC1` [Ex. 25] the inhibition in vivo at 10 mg/kg [3, 10] was 67.2%, the “Inhibitory ratio (% inhibition of reserpine-induced hypothermia)” value [7] was 63% and the response vs control in vivo at 100 mg/kg [6] was 142%.

For `CCN1CCN(c2nc3c(c(-c4ccccc4)n2)CCCC3)CC1` [Ex. 26], the inhibition in vivo at 30 mg/kg [3, 9] was 59.6% and the “Inhibitory ratio (% inhibition of reserpine-induced hypothermia)” value [7] was 100%.

For `OCCN1CCN(c2nc3c(c(-c4ccccc4)n2)CCCC3)CC1` [Ex. 27], the inhibition in vivo at 30 mg/kg [3, 9] was 42%, the “Inhibitory ratio (% inhibition of reserpine-induced hypothermia)” value [7] was 46% and the response vs control in vivo at 100 mg/kg [6] was 131%.

In the case of `CN1CCN(c2nc3c(c(-c4ccc(F)cc4)n2)CCCC3)CC1` [Ex. 28], the inhibition in vivo at 30 mg/kg [3, 9] is reported as 96.4%, the IC50 (dopamine (D2) receptor) is reported as 350 nM and the “Inhibitory ratio (% inhibition of reserpine-induced hypothermia)” value [7] is reported as 37%. For the same compound, the response vs control in vivo at 100 mg/kg [6] was 156% and the IC50 (serotonin (S2) receptor) was 87 nM.

In the case of `OCCN1CCN(c2nc3c(c(-c4ccc(F)cc4)n2)CCCC3)CC1` [Ex. 30], the inhibition in vivo at 30 mg/kg [3, 9] is reported as 75.7%, the “Inhibitory ratio (% inhibition of reserpine-induced hypothermia)” value [7] is reported as 67% and the response vs control in vivo at 100 mg/kg [6] is reported as 137%.
